Reference: US20250243196A1, “CITRON KINASE INHIBITORS” (The Cleveland Clinic Foundation, priority 2021, published 2025)

Tests used:
Assay type in all cases: biochemical
[1] = target: Mnk2 (Homo sapiens (Human), UniProt Q9HBH9); assay: KinaseProfiler radiometric assay (14-664KP); details: mean of at least two independent experiments
Text: In another aspect, disclosed is a method of inhibiting citron kinase in a sample, comprising contacting the sample with a compound described herein (e.g., a compound of formula (I) or a pharmaceutically acceptable salt thereof), or a pharmaceutical composition described herein (e.g., a pharmaceutical composition comprising a compound of formula (I) or a pharmaceutically acceptable salt thereof), in an amount effective to inhibit citron kinase. In some embodiments, the step of contacting the sample with the compound comprises administering the compound to a subject (e.g., a subject) suffering from cancer. Methods of determining kinase inhibition are well known in the art. For example, kinase activity of an enzyme and the inhibitory capacity of a test compound can be determined by measuring enzyme specific phosphorylation of a substrate. Commercial assays and kits can be employed. For example, kinase inhibition can be determined using a radiometric binding assay, such as using KinaseProfiler™ technology (Eurofins Discovery). This assay method directly detects product formation without the use of modified substrates or coupling enzymes. […]
The effect of various compounds on the inhibition of other kinases has also been determined. Table 2 reports measured IC50 values; value units are nanomolar inhibition.

[2] = target: A-Raf(h) (Homo sapiens (Human), UniProt P10398); assay: KinaseProfiler panel; parameters: dose or concentration left out as unconfirmed; details: activity remaining
[3] = target: B-Raf(h) (Homo sapiens (Human), UniProt P15056); assay: KinaseProfiler panel; parameters: dose or concentration left out as unconfirmed; details: activity remaining
[4] = target: CaMKIV(h) (Homo sapiens (Human), UniProt Q16566); assay: KinaseProfiler panel; parameters: dose or concentration left out as unconfirmed; details: activity remaining
[5] = target: CLK4(h) (Homo sapiens (Human), UniProt Q9HAZ1); assay: KinaseProfiler panel; parameters: dose or concentration left out as unconfirmed; details: activity remaining
[6] = target: DAPK1(h) (Homo sapiens (Human), UniProt P53355); assay: KinaseProfiler panel; parameters: dose or concentration left out as unconfirmed; details: activity remaining
[7] = target: DCAMKL2(h) (Homo sapiens (Human), UniProt Q8N568); assay: KinaseProfiler panel; parameters: dose or concentration left out as unconfirmed; details: activity remaining
[8] = target: DNA-PK(h) (Homo sapiens (Human), UniProt P78527); assay: KinaseProfiler panel; parameters: dose or concentration left out as unconfirmed; details: activity remaining
[9] = target: eEF-2K(h) (Homo sapiens (Human), UniProt O00418); assay: KinaseProfiler panel; parameters: dose or concentration left out as unconfirmed; details: activity remaining
[10] = target: EphA5(h) (Homo sapiens (Human), UniProt P54756); assay: KinaseProfiler panel; parameters: dose or concentration left out as unconfirmed; details: activity remaining
[11] = target: ErbB2(h) (Homo sapiens (Human), UniProt P04626); assay: KinaseProfiler panel; parameters: dose or concentration left out as unconfirmed; details: activity remaining
[12] = target: GRK6(h) (Homo sapiens (Human), UniProt P43250); assay: KinaseProfiler panel; parameters: dose or concentration left out as unconfirmed; details: activity remaining
[13] = target: GSK3α(h) (Homo sapiens (Human), UniProt P49840); assay: KinaseProfiler panel; parameters: dose or concentration left out as unconfirmed; details: activity remaining
[14] = target: MAPKAP-K2(h) (Homo sapiens (Human), UniProt P49137); assay: KinaseProfiler panel; parameters: dose or concentration left out as unconfirmed; details: activity remaining
Chain of MAPKAP-K2(h) (P49137 whole entry): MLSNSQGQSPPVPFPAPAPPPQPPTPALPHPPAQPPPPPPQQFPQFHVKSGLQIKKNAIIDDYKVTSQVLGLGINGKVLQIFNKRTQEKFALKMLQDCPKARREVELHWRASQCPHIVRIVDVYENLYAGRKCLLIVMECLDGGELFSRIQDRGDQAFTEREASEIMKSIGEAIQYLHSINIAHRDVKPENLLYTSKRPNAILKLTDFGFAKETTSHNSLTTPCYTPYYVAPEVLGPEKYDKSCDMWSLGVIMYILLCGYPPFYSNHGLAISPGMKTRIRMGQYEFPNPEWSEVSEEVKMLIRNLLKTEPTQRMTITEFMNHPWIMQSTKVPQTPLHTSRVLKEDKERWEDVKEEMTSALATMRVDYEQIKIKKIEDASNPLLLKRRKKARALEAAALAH

[15] = target: MARK3(h) (Homo sapiens (Human), UniProt P27448); assay: KinaseProfiler panel; parameters: dose or concentration left out as unconfirmed; details: activity remaining
Chain of MARK3(h) (P27448 whole entry): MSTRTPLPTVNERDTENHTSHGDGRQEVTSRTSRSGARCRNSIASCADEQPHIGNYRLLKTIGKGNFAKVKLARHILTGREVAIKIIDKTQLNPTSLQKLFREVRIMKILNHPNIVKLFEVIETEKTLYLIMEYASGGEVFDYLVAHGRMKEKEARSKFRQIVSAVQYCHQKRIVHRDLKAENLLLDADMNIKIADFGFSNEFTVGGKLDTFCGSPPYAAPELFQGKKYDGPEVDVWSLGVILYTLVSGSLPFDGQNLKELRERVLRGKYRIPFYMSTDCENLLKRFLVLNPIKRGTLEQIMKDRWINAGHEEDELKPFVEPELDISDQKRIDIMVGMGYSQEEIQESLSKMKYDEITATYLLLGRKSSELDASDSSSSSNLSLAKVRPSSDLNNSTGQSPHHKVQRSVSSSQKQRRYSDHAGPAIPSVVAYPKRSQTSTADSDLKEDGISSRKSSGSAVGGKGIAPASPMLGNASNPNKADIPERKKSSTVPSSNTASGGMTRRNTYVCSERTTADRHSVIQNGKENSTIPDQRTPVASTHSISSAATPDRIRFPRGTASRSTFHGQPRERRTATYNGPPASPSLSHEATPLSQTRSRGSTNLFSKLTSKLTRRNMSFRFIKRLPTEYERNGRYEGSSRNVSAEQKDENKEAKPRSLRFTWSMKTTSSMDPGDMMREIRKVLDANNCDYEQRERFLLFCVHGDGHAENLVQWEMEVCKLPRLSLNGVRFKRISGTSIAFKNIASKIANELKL

[16] = target: MLK4(h) (Homo sapiens (Human), UniProt Q5TCX8); assay: KinaseProfiler panel; parameters: dose or concentration left out as unconfirmed; details: activity remaining
[17] = target: mTOR/FKBP12(h) (Homo sapiens (Human), UniProt P42345); assay: KinaseProfiler panel; parameters: dose or concentration left out as unconfirmed; details: activity remaining
Chain of mTOR/FKBP12(h) (P42345 1362-2549): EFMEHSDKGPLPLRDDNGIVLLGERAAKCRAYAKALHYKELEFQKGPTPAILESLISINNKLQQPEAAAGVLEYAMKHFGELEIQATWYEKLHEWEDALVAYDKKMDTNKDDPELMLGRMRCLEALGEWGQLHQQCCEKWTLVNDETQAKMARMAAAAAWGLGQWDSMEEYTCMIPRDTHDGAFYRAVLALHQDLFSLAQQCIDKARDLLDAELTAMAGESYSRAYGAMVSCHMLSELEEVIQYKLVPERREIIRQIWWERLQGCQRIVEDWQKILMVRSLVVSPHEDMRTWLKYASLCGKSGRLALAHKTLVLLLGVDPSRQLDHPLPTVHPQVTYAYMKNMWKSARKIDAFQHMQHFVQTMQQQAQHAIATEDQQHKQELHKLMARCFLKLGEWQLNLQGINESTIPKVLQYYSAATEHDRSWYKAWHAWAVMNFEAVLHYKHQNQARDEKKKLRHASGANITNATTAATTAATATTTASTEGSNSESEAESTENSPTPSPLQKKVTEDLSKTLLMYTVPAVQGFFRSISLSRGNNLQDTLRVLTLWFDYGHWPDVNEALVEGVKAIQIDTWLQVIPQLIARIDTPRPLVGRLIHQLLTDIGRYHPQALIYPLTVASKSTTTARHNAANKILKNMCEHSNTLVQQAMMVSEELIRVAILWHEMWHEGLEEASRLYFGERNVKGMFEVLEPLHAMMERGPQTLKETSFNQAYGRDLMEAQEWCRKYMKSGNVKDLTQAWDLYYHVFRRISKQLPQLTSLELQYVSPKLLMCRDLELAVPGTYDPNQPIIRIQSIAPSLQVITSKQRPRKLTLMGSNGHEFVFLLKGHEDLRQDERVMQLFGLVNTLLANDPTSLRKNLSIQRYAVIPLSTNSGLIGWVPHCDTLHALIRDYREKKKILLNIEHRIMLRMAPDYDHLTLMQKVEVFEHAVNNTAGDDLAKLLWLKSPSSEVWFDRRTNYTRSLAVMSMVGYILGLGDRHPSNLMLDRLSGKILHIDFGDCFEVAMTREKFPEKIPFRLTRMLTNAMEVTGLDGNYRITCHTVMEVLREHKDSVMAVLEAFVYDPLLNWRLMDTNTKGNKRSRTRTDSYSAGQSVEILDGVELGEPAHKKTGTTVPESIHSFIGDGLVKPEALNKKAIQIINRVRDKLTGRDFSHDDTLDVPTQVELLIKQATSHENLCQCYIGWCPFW

[18] = target: MYLK2(h) (Homo sapiens (Human), UniProt Q9H1R3); assay: KinaseProfiler panel; parameters: dose or concentration left out as unconfirmed; details: activity remaining
[19] = target: PAK1(h) (Homo sapiens (Human), UniProt Q13153); assay: KinaseProfiler panel; parameters: dose or concentration left out as unconfirmed; details: activity remaining
Chain of PAK1(h) (Q13153 whole entry): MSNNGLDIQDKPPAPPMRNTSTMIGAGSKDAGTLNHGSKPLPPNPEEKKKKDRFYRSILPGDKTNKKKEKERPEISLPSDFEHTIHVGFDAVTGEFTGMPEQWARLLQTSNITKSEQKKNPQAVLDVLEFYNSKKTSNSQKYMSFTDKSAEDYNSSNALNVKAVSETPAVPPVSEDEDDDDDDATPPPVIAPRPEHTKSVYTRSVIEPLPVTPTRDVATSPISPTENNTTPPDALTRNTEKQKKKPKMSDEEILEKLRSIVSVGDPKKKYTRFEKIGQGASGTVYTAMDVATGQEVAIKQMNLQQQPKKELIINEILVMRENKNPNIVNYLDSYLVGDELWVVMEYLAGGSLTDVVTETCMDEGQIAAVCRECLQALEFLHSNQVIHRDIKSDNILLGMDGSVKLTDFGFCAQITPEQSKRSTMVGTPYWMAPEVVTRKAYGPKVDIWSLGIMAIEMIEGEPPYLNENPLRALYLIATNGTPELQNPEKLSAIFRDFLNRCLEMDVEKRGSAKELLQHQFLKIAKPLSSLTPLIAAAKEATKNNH

[20] = target: PhKγ1(h) (Homo sapiens (Human), UniProt Q16816); assay: KinaseProfiler panel; parameters: dose or concentration left out as unconfirmed; details: activity remaining
Chain of PhKγ1(h) (Q16816 whole entry): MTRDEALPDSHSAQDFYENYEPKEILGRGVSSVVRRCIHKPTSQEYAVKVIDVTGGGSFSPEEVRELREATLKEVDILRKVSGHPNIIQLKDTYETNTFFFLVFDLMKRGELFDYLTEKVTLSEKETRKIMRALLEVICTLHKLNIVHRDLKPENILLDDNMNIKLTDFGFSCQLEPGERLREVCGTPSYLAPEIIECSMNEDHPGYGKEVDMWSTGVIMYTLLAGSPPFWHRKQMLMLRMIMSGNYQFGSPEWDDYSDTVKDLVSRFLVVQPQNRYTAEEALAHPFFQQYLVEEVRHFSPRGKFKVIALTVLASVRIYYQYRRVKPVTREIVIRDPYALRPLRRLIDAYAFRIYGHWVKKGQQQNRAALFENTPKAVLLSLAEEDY

[21] = target: Pim-2(h) (Homo sapiens (Human), UniProt Q9P1W9); assay: KinaseProfiler panel; parameters: dose or concentration left out as unconfirmed; details: activity remaining
[22] = target: Plk3(h) (Homo sapiens (Human), UniProt Q9H4B4); assay: KinaseProfiler panel; parameters: dose or concentration left out as unconfirmed; details: activity remaining
[23] = target: PrKX(h) (Homo sapiens (Human), UniProt P51817); assay: KinaseProfiler panel; parameters: dose or concentration left out as unconfirmed; details: activity remaining
Chain of PrKX(h) (P51817 whole entry): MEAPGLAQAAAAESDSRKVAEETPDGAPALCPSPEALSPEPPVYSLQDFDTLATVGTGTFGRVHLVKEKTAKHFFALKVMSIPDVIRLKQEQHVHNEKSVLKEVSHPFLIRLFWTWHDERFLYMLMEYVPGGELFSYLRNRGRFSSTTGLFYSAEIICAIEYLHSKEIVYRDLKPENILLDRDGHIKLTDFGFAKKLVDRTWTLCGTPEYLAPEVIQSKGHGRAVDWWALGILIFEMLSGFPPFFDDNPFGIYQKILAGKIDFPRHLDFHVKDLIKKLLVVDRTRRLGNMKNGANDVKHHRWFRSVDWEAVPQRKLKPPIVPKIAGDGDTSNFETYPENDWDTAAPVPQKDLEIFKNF

[24] = target: Rsk2(h) (Homo sapiens (Human), UniProt P51812); assay: KinaseProfiler panel; parameters: dose or concentration left out as unconfirmed; details: activity remaining
Chain of Rsk2(h) (P51812 whole entry): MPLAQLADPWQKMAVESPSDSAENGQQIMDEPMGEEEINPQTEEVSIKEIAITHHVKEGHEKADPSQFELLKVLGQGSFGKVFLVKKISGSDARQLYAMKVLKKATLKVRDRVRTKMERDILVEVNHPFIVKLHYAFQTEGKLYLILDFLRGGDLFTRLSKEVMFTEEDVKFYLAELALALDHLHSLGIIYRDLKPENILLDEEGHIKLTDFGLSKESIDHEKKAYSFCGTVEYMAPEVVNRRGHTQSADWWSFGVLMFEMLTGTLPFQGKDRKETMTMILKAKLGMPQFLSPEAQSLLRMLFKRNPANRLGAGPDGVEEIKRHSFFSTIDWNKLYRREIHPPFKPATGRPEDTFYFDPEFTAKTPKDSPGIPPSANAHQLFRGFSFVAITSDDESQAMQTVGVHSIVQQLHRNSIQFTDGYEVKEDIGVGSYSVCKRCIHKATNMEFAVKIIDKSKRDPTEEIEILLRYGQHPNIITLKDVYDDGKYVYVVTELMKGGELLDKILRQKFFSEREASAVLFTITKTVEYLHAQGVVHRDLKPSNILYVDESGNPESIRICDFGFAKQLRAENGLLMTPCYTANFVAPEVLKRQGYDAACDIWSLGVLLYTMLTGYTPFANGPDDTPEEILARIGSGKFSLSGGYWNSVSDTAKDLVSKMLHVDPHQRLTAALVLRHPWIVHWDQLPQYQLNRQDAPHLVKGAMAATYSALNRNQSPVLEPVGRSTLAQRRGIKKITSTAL

[25] = target: TSSK1(h) (Homo sapiens (Human), UniProt Q9BXA7); assay: KinaseProfiler panel; parameters: dose or concentration left out as unconfirmed; details: activity remaining
Chain of TSSK1(h) (Q9BXA7 whole entry): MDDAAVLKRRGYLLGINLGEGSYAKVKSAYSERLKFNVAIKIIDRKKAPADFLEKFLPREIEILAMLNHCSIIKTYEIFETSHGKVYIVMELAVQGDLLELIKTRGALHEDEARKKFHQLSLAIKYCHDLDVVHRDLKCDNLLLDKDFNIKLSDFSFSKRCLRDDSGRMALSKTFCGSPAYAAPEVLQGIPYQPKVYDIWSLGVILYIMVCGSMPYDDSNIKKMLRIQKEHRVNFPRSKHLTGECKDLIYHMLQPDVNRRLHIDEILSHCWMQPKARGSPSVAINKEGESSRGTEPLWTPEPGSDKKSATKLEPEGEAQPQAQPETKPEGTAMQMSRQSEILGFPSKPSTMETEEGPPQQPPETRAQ

[26] = target: WNK1(h) (Homo sapiens (Human), UniProt Q9H4A3); assay: KinaseProfiler panel; parameters: dose or concentration left out as unconfirmed; details: activity remaining

Cc1cc2c(-c3ccc(NC(=O)[C@H](N)CC(C)(C)C)cc3C)ccnc2[nH]1 [Compound F-90, (2R)-2-Amino-4,4-dimethyl-N-[3-methyl-4-(2-methyl-1H-pyrrolo[2,3-b]pyridin-4-yl)phenyl]pentanamide]
IC50 [1]: 2.18 µM | % Activity [2]: 97% | % Activity [3]: 110% | % Activity [4]: 99% | % Activity [5]: 85% | % Activity [6]: 82% | % Activity [7]: 104% | % Activity [8]: 107% | % Activity [9]: 92% | % Activity [10]: 89% | % Activity [11]: 97% | % Activity [12]: 95% | % Activity [13]: 87% | % Activity [14]: 72% | % Activity [15]: 90% | % Activity [16]: 112% | % Activity [17]: 120% | % Activity [18]: 76% | % Activity [19]: 95% | % Activity [20]: 101% | % Activity [21]: 117% | % Activity [22]: 100% | % Activity [23]: 101% | % Activity [24]: 88% | % Activity [25]: 116% | % Activity [26]: 109%
